Assay results: ChEMBL document CHEMBL3885881, “DrugMatrix”

Tests used:
Rattus norvegicus [1] = species: Rattus norvegicus; assay: DrugMatrix - Regimen: Daily Repeat; format: toxicity, organism-based, Sprague-Dawley; parameters: regimen Daily Repeat, gender Male, age 6-8 weeks; settings: in vivo, po, […], route oral GAVAGE, time 14 day
Rattus norvegicus [2] = species: Rattus norvegicus; format: toxicity, organism-based, Sprague-Dawley; settings: in vivo, po, 24 h, route oral GAVAGE, time 1 day
Description: DrugMatrix - Regimen: Single

[3] = 0 mg/kg, tissue Blood, dose level Control, vehicle 100 % WATER
[4] = 0 mg/kg, tissue Plasma, dose level Control, vehicle 100 % WATER
[5] = 330 mg/kg, tissue Blood, dose level High, vehicle .5 % CMC
[6] = 330 mg/kg, tissue Plasma, dose level High, vehicle .5 % CMC

Molecule: c1ccncc1 [PYRIDINE]
- ABSOLUTE BASOPHIL (Rattus norvegicus [1]; [3]): 0 CELLS/uL
- ABSOLUTE EOSINOPHIL (Rattus norvegicus [1]; [3]): 117.17 CELLS/uL
- ABSOLUTE LYMPHOCYTE (Rattus norvegicus [1]; [3]): 12774.17 CELLS/uL
- ABSOLUTE MONOCYTE (Rattus norvegicus [1]; [3]): 419 CELLS/uL
- ABSOLUTE SEGMENTED NEUTROPHIL (Rattus norvegicus [1]; [3]): 2139.67 CELLS/uL
- BASOPHIL (Rattus norvegicus [1]; [3]): 0%
- EOSINOPHIL (Rattus norvegicus [1]; [3]): 0.67%
- ERYTHROCYTE COUNT (Rattus norvegicus [1]; [3]): 6.61 x10E6/uL
- HEMATOCRIT (Rattus norvegicus [1]; [3]): 37.58%
- HEMOGLOBIN (Rattus norvegicus [1]; [3]): 13.8 G/DL
- LEUKOCYTE COUNT (Rattus norvegicus [1]; [3]): 15.45 x10E3/uL
- LYMPHOCYTE (Rattus norvegicus [1]; [3]): 83%
- MEAN CORPUSCULAR HEMOGLOBIN (Rattus norvegicus [1]; [3]): 20.87 pg
- MEAN CORPUSCULAR HEMOGLOBIN CONCENTRATION (Rattus norvegicus [1]; [3]): 36.72 G/DL
- MEAN CORPUSCULAR VOLUME (Rattus norvegicus [1]; [3]): 56.85 fL
- MONOCYTE (Rattus norvegicus [1]; [3]): 2.67%
- NEUTROPHIL (Rattus norvegicus [1]; [3]): 13.67%
- NUCLEATED RED BLOOD CELLS (Rattus norvegicus [1]; [3]): 0 /100WBC
- PLATELET COUNT (Rattus norvegicus [1]; [3]): 1108.33 x10E3/uL
- ALANINE AMINOTRANSFERASE (Rattus norvegicus [1]; [4]): 56.83 u/L
- ALBUMIN (Rattus norvegicus [1]; [4]): 4.18 G/DL
- ALKALINE PHOSPHATASE (Rattus norvegicus [1]; [4]): 354.33 u/L
- ASPARTATE AMINOTRANSFERASE (Rattus norvegicus [1]; [4]): 93.33 u/L
- BLOOD UREA NITROGEN (Rattus norvegicus [1]; [4]): 16.67 mg/dL
- CARBON DIOXIDE (Rattus norvegicus [1]; [4]): 27.83 mmol/L
- CHLORIDE (Rattus norvegicus [1]; [4]): 102.17 MEQ/L
- CHOLESTEROL (Rattus norvegicus [1]; [4]): 62.33 mg/dL
- CREATININE (Rattus norvegicus [1]; [4]): 0.2 mg/dL
- GLUCOSE (Rattus norvegicus [1]; [4]): 137 mg/dL
- LACTATE DEHYDROGENASE (Rattus norvegicus [1]; [4]): 407 u/L
- LIPASE (Rattus norvegicus [1]; [4]): 10.83 u/L
- PHOSPHORUS (Rattus norvegicus [1]; [4]): 11.45 mg/dL
- POTASSIUM (Rattus norvegicus [1]; [4]): 6.51 MEQ/L
- SODIUM (Rattus norvegicus [1]; [4]): 145.57 MEQ/L
- TOTAL BILIRUBIN (Rattus norvegicus [1]; [4]): 0.2 mg/dL
- TOTAL PROTEIN (Rattus norvegicus [1]; [4]): 6.3 G/DL
- URIC ACID (Rattus norvegicus [1]; [4]): 1.93 mg/dL
- ABSOLUTE EOSINOPHIL (Rattus norvegicus [2]; [3]): 91.83 CELLS/uL
- ABSOLUTE LYMPHOCYTE (Rattus norvegicus [2]; [3]): 13862.33 CELLS/uL
- ABSOLUTE MONOCYTE (Rattus norvegicus [2]; [3]): 437.83 CELLS/uL
- ABSOLUTE SEGMENTED NEUTROPHIL (Rattus norvegicus [2]; [3]): 1358 CELLS/uL
- BASOPHIL (Rattus norvegicus [2]; [3]): 0%
- EOSINOPHIL (Rattus norvegicus [2]; [3]): 0.5%
- ERYTHROCYTE COUNT (Rattus norvegicus [2]; [3]): 5.12 x10E6/uL
- HEMATOCRIT (Rattus norvegicus [2]; [3]): 31.77%
- HEMOGLOBIN (Rattus norvegicus [2]; [3]): 11.8 G/DL
- LEUKOCYTE COUNT (Rattus norvegicus [2]; [3]): 15.75 x10E3/uL
- LYMPHOCYTE (Rattus norvegicus [2]; [3]): 88.33%
- MEAN CORPUSCULAR HEMOGLOBIN (Rattus norvegicus [2]; [3]): 23.07 pg
- MEAN CORPUSCULAR HEMOGLOBIN CONCENTRATION (Rattus norvegicus [2]; [3]): 37.17 G/DL
- MEAN CORPUSCULAR VOLUME (Rattus norvegicus [2]; [3]): 62.15 fL
- MONOCYTE (Rattus norvegicus [2]; [3]): 2.67%
- NEUTROPHIL (Rattus norvegicus [2]; [3]): 8.5%
- NUCLEATED RED BLOOD CELLS (Rattus norvegicus [2]; [3]): 0 /100WBC
- PLATELET COUNT (Rattus norvegicus [2]; [3]): 1113.83 x10E3/uL
- ALANINE AMINOTRANSFERASE (Rattus norvegicus [2]; [4]): 45.5 u/L
- ALBUMIN (Rattus norvegicus [2]; [4]): 4.07 G/DL
- ALKALINE PHOSPHATASE (Rattus norvegicus [2]; [4]): 343.83 u/L
- ASPARTATE AMINOTRANSFERASE (Rattus norvegicus [2]; [4]): 70.67 u/L
- BLOOD UREA NITROGEN (Rattus norvegicus [2]; [4]): 13 mg/dL
- CARBON DIOXIDE (Rattus norvegicus [2]; [4]): 33 mmol/L
- CHLORIDE (Rattus norvegicus [2]; [4]): 100.33 MEQ/L
- CHOLESTEROL (Rattus norvegicus [2]; [4]): 76.67 mg/dL
- CREATININE (Rattus norvegicus [2]; [4]): 0.12 mg/dL
- GLUCOSE (Rattus norvegicus [2]; [4]): 148.67 mg/dL
- LACTATE DEHYDROGENASE (Rattus norvegicus [2]; [4]): 116.67 u/L
- LIPASE (Rattus norvegicus [2]; [4]): 8 u/L
- PHOSPHORUS (Rattus norvegicus [2]; [4]): 12.58 mg/dL
- POTASSIUM (Rattus norvegicus [2]; [4]): 6.33 MEQ/L
- SODIUM (Rattus norvegicus [2]; [4]): 142.88 MEQ/L
- TOTAL BILIRUBIN (Rattus norvegicus [2]; [4]): 0.18 mg/dL
- TOTAL PROTEIN (Rattus norvegicus [2]; [4]): 5.77 G/DL
- URIC ACID (Rattus norvegicus [2]; [4]): 1.27 mg/dL

Molecule: FERROCENE
- ABSOLUTE BASOPHIL (Rattus norvegicus [1]; [5]): 0 CELLS/uL
- ABSOLUTE EOSINOPHIL (Rattus norvegicus [1]; [5]): 150.8 CELLS/uL
- ABSOLUTE LYMPHOCYTE (Rattus norvegicus [1]; [5]): 17564.8 CELLS/uL
- ABSOLUTE MONOCYTE (Rattus norvegicus [1]; [5]): 546.8 CELLS/uL
- ABSOLUTE SEGMENTED NEUTROPHIL (Rattus norvegicus [1]; [5]): 2837.6 CELLS/uL
- BASOPHIL (Rattus norvegicus [1]; [5]): 0%
- EOSINOPHIL (Rattus norvegicus [1]; [5]): 0.8%
- ERYTHROCYTE COUNT (Rattus norvegicus [1]; [5]): 5.16 x10E6/uL
- HEMATOCRIT (Rattus norvegicus [1]; [5]): 32.2%
- HEMOGLOBIN (Rattus norvegicus [1]; [5]): 11.86 G/DL
- LEUKOCYTE COUNT (Rattus norvegicus [1]; [5]): 21.1 x10E3/uL
- LYMPHOCYTE (Rattus norvegicus [1]; [5]): 83.2%
- MEAN CORPUSCULAR HEMOGLOBIN (Rattus norvegicus [1]; [5]): 23.1 pg
- MEAN CORPUSCULAR HEMOGLOBIN CONCENTRATION (Rattus norvegicus [1]; [5]): 36.82 G/DL
- MONOCYTE (Rattus norvegicus [1]; [5]): 2.6%
- NEUTROPHIL (Rattus norvegicus [1]; [5]): 13.4%
- NUCLEATED RED BLOOD CELLS (Rattus norvegicus [1]; [5]): 0 /100WBC
- PLATELET COUNT (Rattus norvegicus [1]; [5]): 1348 x10E3/uL
- ALANINE AMINOTRANSFERASE (Rattus norvegicus [1]; [6]): 39.6 u/L
- ALBUMIN (Rattus norvegicus [1]; [6]): 4.42 G/DL
- ALKALINE PHOSPHATASE (Rattus norvegicus [1]; [6]): 217.6 u/L
- ASPARTATE AMINOTRANSFERASE (Rattus norvegicus [1]; [6]): 59.8 u/L
- BLOOD UREA NITROGEN (Rattus norvegicus [1]; [6]): 15.2 mg/dL
- CARBON DIOXIDE (Rattus norvegicus [1]; [6]): 25 mmol/L
- CHOLESTEROL (Rattus norvegicus [1]; [6]): 87.2 mg/dL
- CREATININE (Rattus norvegicus [1]; [6]): 0.19 mg/dL
- GLUCOSE (Rattus norvegicus [1]; [6]): 182.6 mg/dL
- LIPASE (Rattus norvegicus [1]; [6]): 10.2 u/L
- PHOSPHORUS (Rattus norvegicus [1]; [6]): 12.74 mg/dL
- TOTAL BILIRUBIN (Rattus norvegicus [1]; [6]): 0.22 mg/dL
- TOTAL PROTEIN (Rattus norvegicus [1]; [6]): 6.84 G/DL
- URIC ACID (Rattus norvegicus [1]; [6]): 2.68 mg/dL
- ABSOLUTE EOSINOPHIL (Rattus norvegicus [2]; [5]): 50.33 CELLS/uL
- ABSOLUTE LYMPHOCYTE (Rattus norvegicus [2]; [5]): 10757 CELLS/uL
- ABSOLUTE MONOCYTE (Rattus norvegicus [2]; [5]): 373 CELLS/uL
- ABSOLUTE SEGMENTED NEUTROPHIL (Rattus norvegicus [2]; [5]): 1253 CELLS/uL
- BASOPHIL (Rattus norvegicus [2]; [5]): 0%
- EOSINOPHIL (Rattus norvegicus [2]; [5]): 0.33%
- ERYTHROCYTE COUNT (Rattus norvegicus [2]; [5]): 5.36 x10E6/uL
- HEMATOCRIT (Rattus norvegicus [2]; [5]): 33.23%
- HEMOGLOBIN (Rattus norvegicus [2]; [5]): 12.53 G/DL
- LEUKOCYTE COUNT (Rattus norvegicus [2]; [5]): 12.43 x10E3/uL
- LYMPHOCYTE (Rattus norvegicus [2]; [5]): 87%
- MEAN CORPUSCULAR HEMOGLOBIN (Rattus norvegicus [2]; [5]): 23.47 pg
- MEAN CORPUSCULAR HEMOGLOBIN CONCENTRATION (Rattus norvegicus [2]; [5]): 37.7 G/DL
- MONOCYTE (Rattus norvegicus [2]; [5]): 3%
- NEUTROPHIL (Rattus norvegicus [2]; [5]): 9.67%
- NUCLEATED RED BLOOD CELLS (Rattus norvegicus [2]; [5]): 0 /100WBC
- PLATELET COUNT (Rattus norvegicus [2]; [5]): 1189.67 x10E3/uL
- ALANINE AMINOTRANSFERASE (Rattus norvegicus [2]; [6]): 42.67 u/L
- ALBUMIN (Rattus norvegicus [2]; [6]): 4.5 G/DL
- ALKALINE PHOSPHATASE (Rattus norvegicus [2]; [6]): 371.33 u/L
- ASPARTATE AMINOTRANSFERASE (Rattus norvegicus [2]; [6]): 77 u/L
- BLOOD UREA NITROGEN (Rattus norvegicus [2]; [6]): 11.67 mg/dL
- CARBON DIOXIDE (Rattus norvegicus [2]; [6]): 26.33 mmol/L
- CREATININE (Rattus norvegicus [2]; [6]): 0.18 mg/dL
- LACTATE DEHYDROGENASE (Rattus norvegicus [2]; [6]): 127.67 u/L
- LIPASE (Rattus norvegicus [2]; [6]): 8.33 u/L
- PHOSPHORUS (Rattus norvegicus [2]; [6]): 12.47 mg/dL
- POTASSIUM (Rattus norvegicus [2]; [6]): 6.09 MEQ/L
- TOTAL BILIRUBIN (Rattus norvegicus [2]; [6]): 0.13 mg/dL
- TOTAL PROTEIN (Rattus norvegicus [2]; [6]): 6.33 G/DL
- URIC ACID (Rattus norvegicus [2]; [6]): 1.03 mg/dL
